Measured values taken from ChEMBL document CHEMBL3733935, “Pyrazolylbenzothiazole derivatives and their use as therapeutic agents” (2013).
The source made the active and inactive calls.

Tests used:
Assay type in all cases: functional, cell-based
Mus musculus [1] = species: Mus musculus; assay: Cytoprotective activity against PAN-induced toxicity in mouse K5P5 cells assessed as increase in cell size at 2.5 to 25 uM after 48 to 72 hrs by crystal violet staining assay
Mus musculus [2] = species: Mus musculus; assay: Cytoprotective activity against PAN-induced toxicity in mouse K5P5 cells assessed as increase in cell spreading at 2.5 to 25 uM after 48 to 72 hrs by crystal violet staining assay
Mus musculus [3] = species: Mus musculus; assay: Cytoprotective activity against PAN-induced toxicity in mouse K5P5 cells assessed as increase in overall cell number at 2.5 to 25 uM after 48 to 72 hrs by crystal violet staining assay

Measured: Activity

Cc1[nH]nc(N)c1-c1nc2ccc(CN(C)C)cc2s1
active: Mus musculus [1] | Mus musculus [2] | Mus musculus [3]

CNS(=O)(=O)c1ccc2nc(-c3c(N)n[nH]c3C)sc2c1
active: Mus musculus [1] | Mus musculus [2] | Mus musculus [3]

Cc1[nH]nc(N)c1-c1nc2cc(F)c(S(=O)(=O)NCCO)cc2s1
active: Mus musculus [1] | Mus musculus [2] | Mus musculus [3]

Cc1[nH]nc(N)c1-c1nc2cc(F)c(S(N)(=O)=O)cc2s1
active: Mus musculus [1] | Mus musculus [2] | Mus musculus [3]

COc1cc2sc(-c3c(-c4ccco4)n[nH]c3N)nc2cc1F
active: Mus musculus [1] | Mus musculus [2] | Mus musculus [3]
